Some test systems named below: A498 renal; PC-3 prostate; HCT-15 colon; MCF7 breast; NCI-H23 lung; UO-31 renal; NCI/ADR-RES ovarian; KM12 colon; IGROV1 ovarian; SK-MEL-2 melanoma; SK-OV-3 ovarian; BT-549 breast; SN12C renal; OVCAR-4 ovarian; HOP-92 NSCLC; SW-620 colon; NCI-H522 lung; RPMI-8226 leukemia; MDA-MB-435.
Common to all, as to test: NCI tumour cell line growth inhibition, 48 h

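Each compound was tested at five concentrations against cells in 96-well plates for 48 hours. TGI: concentration producing complete growth inhibition.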

Consider `COc1cc2c(c(N)c1OC)C(=O)/C(=C/c1cc(C)c(O)c(C)c1)C2`, for which the TGI in the assay with A498 renal was over 90.4 µM; in the assay with PC-3 prostate it was over 100 µM; in the assay on HCT-15 colon it was over 100 µM; in the assay with MCF7 breast it was over 100 µM; with NCI-H23 lung, over 46.6 µM; with UO-31 renal, over 100 µM. Besides, the TGI in the assay on NCI/ADR-RES ovarian was over 100 µM; in the assay on KM12 colon, 1.82 µM; in the assay with IGROV1 ovarian it was over 100 µM; in the assay on SK-MEL-2 melanoma it was over 95.4 µM; with SK-OV-3 ovarian it was over 100 µM; with BT-549 breast it was over 100 µM. Besides, the TGI in the assay with SN12C renal, in the assay on OVCAR-4 ovarian, in the assay on HOP-92 NSCLC and in the assay with SW-620 colon was over 100 µM throughout.

With `C=C1C(=O)OC2C[C@H](C)C3CC(=O)C(C)=C3CC12` (stereo partly drawn), the TGI in the assay with A498 renal is 43.7 µM; in the assay with NCI-H522 lung it was 3.66 µM; in the assay on HCT-15 colon, 25.9 µM; in the assay with RPMI-8226 leukemia, 21.9 µM; with NCI-H23 lung, 28.7 µM; in the assay with UO-31 renal, 26 µM. In addition, the TGI in the assay with KM12 colon was 33.3 µM; with IGROV1 ovarian, 31.4 µM; in the assay on SK-MEL-2 melanoma, 29 µM; with SK-OV-3 ovarian, over 100 µM; in the assay with SN12C renal, 26.1 µM; with OVCAR-4 ovarian, 30.3 µM. Further, the TGI with HOP-92 NSCLC came to 24.1 µM; in the assay with SW-620 colon, 18.7 µM.

As to `CCOc1ccc(C2=C(Cl)c3cc(OC)c(OC)cc3C2Cl)cc1` (stereo not drawn), the TGI in the assay with A498 renal was 90.4 µM; in the assay with NCI-H522 lung, 49 µM; in the assay on HCT-15 colon, over 100 µM; with RPMI-8226 leukemia, 73 µM; with NCI-H23 lung, over 100 µM; in the assay with UO-31 renal, over 100 µM. Further, the TGI with IGROV1 ovarian was over 100 µM; with SK-MEL-2 melanoma, 70.6 µM; in the assay on SK-OV-3 ovarian, over 100 µM; in the assay with SN12C renal, over 100 µM; in the assay on HOP-92 NSCLC it was 86.5 µM; with SW-620 colon, over 100 µM.

As for `COc1cc(C2c3cc4c(cc3OC3(O)COC(=O)C23)OCO4)cc(OC)c1OC` (stereo not drawn), the TGI with A498 renal was over 100 µM; in the assay with NCI-H522 lung, 54.1 µM; in the assay on HCT-15 colon, over 100 µM; in the assay on RPMI-8226 leukemia, over 100 µM; with NCI-H23 lung it was over 100 µM; in the assay with UO-31 renal, over 100 µM. The TGI with IGROV1 ovarian was over 100 µM; in the assay on SK-MEL-2 melanoma it was over 100 µM; in the assay with SK-OV-3 ovarian, 79 µM; in the assay with SN12C renal, over 100 µM; with OVCAR-4 ovarian, over 100 µM; with SW-620 colon, over 100 µM.

`CCCCC(NC(=O)CC)C(=O)O` (stereo not drawn): the TGI with A498 renal, with NCI-H522 lung, with HCT-15 colon, in the assay on MCF7 breast, in the assay with RPMI-8226 leukemia and in the assay with NCI-H23 lung was over 100 µM throughout. Besides, the TGI in the assay with UO-31 renal, in the assay on NCI/ADR-RES ovarian, in the assay with KM12 colon, with IGROV1 ovarian, in the assay with SK-MEL-2 melanoma and with SK-OV-3 ovarian was over 100 µM in each case. Moreover, the TGI with SN12C renal, with OVCAR-4 ovarian, in the assay on HOP-92 NSCLC and in the assay with SW-620 colon was over 100 µM throughout.

In the case of `O=C1NC2OCC(O)C(O1)C2O` (stereo not drawn), the TGI in the assay with A498 renal, in the assay with NCI-H522 lung, in the assay with HCT-15 colon, with RPMI-8226 leukemia, in the assay on NCI-H23 lung and in the assay on UO-31 renal was over 100 µM each time. Moreover, the TGI in the assay with KM12 colon, with IGROV1 ovarian, in the assay on SK-MEL-2 melanoma, in the assay on SK-OV-3 ovarian, in the assay on SN12C renal and in the assay on OVCAR-4 ovarian was over 100 µM in each case. Besides, the TGI in the assay on HOP-92 NSCLC and in the assay on SW-620 colon was over 100 µM each time.

Turning to `O/N=C(\C=N\O)c1ccc2c(c1)Sc1ccccc1O2`, the TGI came out at 41.6 µM in the assay with A498 renal; 8.17 µM with NCI-H522 lung; 66.1 µM with PC-3 prostate; 75.2 µM in the assay on HCT-15 colon; 40.6 µM in the assay on MCF7 breast; 33.9 µM in the assay on MDA-MB-435. Besides, the TGI in the assay with RPMI-8226 leukemia is 38.9 µM; with NCI-H23 lung, 60.3 µM; with UO-31 renal it was 54 µM; with KM12 colon it was over 100 µM; with SK-OV-3 ovarian it was 40.2 µM; with BT-549 breast it was 40.7 µM. The TGI in the assay with SN12C renal is 37.1 µM; with OVCAR-4 ovarian it was 74.2 µM; in the assay with HOP-92 NSCLC, 36.8 µM; in the assay with SW-620 colon, 78.7 µM.

As to `CC1=C2C(=O)C3[C@@H](CCC4=CC(=O)CC[C@@]43C)C2CC[C@]12O[C@@H]1C[C@H](C)CN[C@H]1[C@H]2C` (stereo partly drawn), the TGI was over 100 µM with A498 renal; 37.1 µM with NCI-H522 lung; over 100 µM with HCT-15 colon; 49.7 µM in the assay on RPMI-8226 leukemia; over 100 µM in the assay on NCI-H23 lung; over 100 µM in the assay with UO-31 renal. In addition, the TGI in the assay on KM12 colon is over 100 µM; in the assay on IGROV1 ovarian, over 100 µM; in the assay on SK-MEL-2 melanoma it was 63.2 µM; in the assay with SK-OV-3 ovarian, over 100 µM; with SN12C renal, over 100 µM; with OVCAR-4 ovarian, over 100 µM. For the same compound, the TGI in the assay on HOP-92 NSCLC and in the assay on SW-620 colon was over 100 µM each time.

As to `COC(=O)C(/C(=N/N)C(=O)Nc1ccc(C)c(C)c1)c1nc2ccc(Cl)cc2[nH]c1=O` (stereo not drawn), the TGI in the assay on A498 renal, in the assay with NCI-H522 lung, with PC-3 prostate, in the assay on HCT-15 colon, in the assay on MCF7 breast and in the assay on MDA-MB-435 was over 100 µM each time. Besides, the TGI in the assay with RPMI-8226 leukemia, with NCI-H23 lung, in the assay with UO-31 renal, in the assay on NCI/ADR-RES ovarian, in the assay on KM12 colon and in the assay with IGROV1 ovarian was over 100 µM each time. Besides, the TGI with SK-MEL-2 melanoma, with SK-OV-3 ovarian, with BT-549 breast, with SN12C renal, in the assay with OVCAR-4 ovarian and in the assay on HOP-92 NSCLC was over 100 µM each time. Further, the TGI in the assay on SW-620 colon is over 100 µM.

Source of the values: PubChem BioAssay (NCI).
